Assay results published in patent US11485742B2, “2-azaspiro[3.4]octane derivatives as M4 agonists” (NOVARTIS AG, priority 2019, dated 2022).
pEC50: −log10 of the molar value.

Key:
[1] = biological target: T1, Cloned human M1 receptor (CHRM1) (Homo sapiens, UniProt P11229); assay: CHRM1 Ca++ Flux Assay (HEK293 M1 cells, agonist mode); type: cell-based; details: for Emax: Percent Activity (PA), read-out: M1 FDSS PA %; for pEC50: geometric mean if tested more than once, read-out: M1 FDSS EC50
T1 construct: expressed in transfected cells; host or cells: HEK293
T1 sequence (P11229 1-460): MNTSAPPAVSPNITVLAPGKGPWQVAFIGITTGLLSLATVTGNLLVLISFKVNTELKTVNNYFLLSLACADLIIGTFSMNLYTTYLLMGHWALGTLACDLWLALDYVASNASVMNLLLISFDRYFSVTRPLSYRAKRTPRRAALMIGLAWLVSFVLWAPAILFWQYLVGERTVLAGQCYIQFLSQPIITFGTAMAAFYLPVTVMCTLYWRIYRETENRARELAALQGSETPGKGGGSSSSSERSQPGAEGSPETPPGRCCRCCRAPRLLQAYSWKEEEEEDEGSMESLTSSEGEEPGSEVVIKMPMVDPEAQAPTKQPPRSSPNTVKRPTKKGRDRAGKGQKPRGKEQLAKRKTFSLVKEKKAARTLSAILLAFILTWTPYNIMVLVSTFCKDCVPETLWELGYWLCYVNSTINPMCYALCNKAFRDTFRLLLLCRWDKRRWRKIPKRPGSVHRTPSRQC
Method in brief: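 HEK293 cells stably expressing human M1 were loaded with Ca++ dye, then given compounds (11-point dose, triplicate) in HBSS −Ca/−Mg, 20 mM HEPES. Ca++ flux was read over 3 min (agonist mode). Four-parameter curves were fitted, with activity as percent of carbachol EC100.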

[2] = biological target: T2, human cloned CHRM3 receptor (Homo sapiens, UniProt P20309); assay: CHRM3 Ca++ Flux Assay (M3_CHO cells, agonist mode); type: cell-based; details: for Emax: Percent Activity (PA) measured to EC100 of Carbachol, read-out: M3 FDSS PA %; for pEC50: agonist mode, geometric mean if tested more than once, read-out: M3 FDSS EC50
T2 construct: expressed in transfected cells; host or cells: CHO-K1 (M3_CHO)
T2 sequence (P20309 whole entry): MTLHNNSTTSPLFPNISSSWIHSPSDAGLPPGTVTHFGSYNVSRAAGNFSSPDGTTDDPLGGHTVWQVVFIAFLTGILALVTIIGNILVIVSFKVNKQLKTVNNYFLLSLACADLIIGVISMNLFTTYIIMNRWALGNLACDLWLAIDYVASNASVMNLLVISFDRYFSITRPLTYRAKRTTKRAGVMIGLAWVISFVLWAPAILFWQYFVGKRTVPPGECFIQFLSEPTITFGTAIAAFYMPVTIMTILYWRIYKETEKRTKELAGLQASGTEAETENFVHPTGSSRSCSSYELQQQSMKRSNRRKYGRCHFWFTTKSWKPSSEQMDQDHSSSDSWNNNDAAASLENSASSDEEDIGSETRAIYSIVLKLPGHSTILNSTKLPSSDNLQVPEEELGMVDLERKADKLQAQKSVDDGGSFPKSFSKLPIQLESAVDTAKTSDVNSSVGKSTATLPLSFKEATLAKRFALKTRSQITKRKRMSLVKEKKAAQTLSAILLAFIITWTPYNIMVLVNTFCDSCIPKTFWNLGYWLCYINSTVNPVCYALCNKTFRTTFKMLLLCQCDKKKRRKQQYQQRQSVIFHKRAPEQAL
Method in brief: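 CHO-K1 cells stably expressing human M3 or M5 receptor, dye-loaded ≥1 h, treated with 11-point compound doses in triplicate; Ca++ flux read over 3 min (FDSS). Agonist-mode four-parameter fit; percent activity relative to carbachol EC100; repeat tests reported as geometric mean.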

SMILES | Emax [1] [%] | pEC50 [1] | Emax [2] [%] | pEC50 [2]
c1ccc(C2CCN([C@@H]3COC4(C3)CN(c3nnco3)C4)CC2)c(-c2cncnc2)c1 [Example 1W, (S)-2-(1,3,4-oxadiazol-2-yl)-7-(4-(2-(pyrimidin-5-yl)phenyl)piperidin-1-yl)-5-oxa-2-azaspiro[3.4]octane] | 94 | 6.47 | 0 | < 4.60
Fc1ccc(OC2COCOC2)c(C2CCN([C@@H]3COC4(C3)CN(c3nnco3)C4)CC2)c1 [Example 1M, (S)-7-(4-(2-((1,3-dioxan-5-yl)oxy)-5-fluorophenyl)piperidin-1-yl)-2-(1,3,4-oxadiazol-2-yl)-5-oxa-2-azaspiro[3.4]octane] | 89 | 5.86 | 0 | < 4.60
Fc1ccc(OC2CC3(COC3)C2)c(C2CCN([C@@H]3COC4(C3)CN(c3nncs3)C4)CC2)c1 [Example 5W, (S)-7-(4-(2-((2-oxaspiro[3.3]heptan-6-yl)oxy)-5-fluorophenyl)piperidin-1-yl)-2-(1,3,4-thiadiazol-2-yl)-5-oxa-2-azaspiro[3.4]octane] | 68 | 5.44 | 0 | < 4.60
COCCOc1ccc(F)cc1C1CCN([C@@H]2COC3(C2)CN(c2nnco2)C3)CC1 [Example 1L, (S)-7-(4-(5-fluoro-2-(2-methoxyethoxy)phenyl)piperidin-1-yl)-2-(1,3,4-oxadiazol-2-yl)-5-oxa-2-azaspiro[3.4]octane] | 75 | 5.88 | 0 | < 4.60
COC(C)(C)CCOc1ccc(F)cc1C1CCN([C@@H]2COC3(C2)CN(c2nnco2)C3)CC1 [Example 1K, (S)-7-(4-(5-fluoro-2-(3-methoxy-3-methylbutoxy)phenyl)piperidin-1-yl)-2-(1,3,4-oxadiazol-2-yl)-5-oxa-2-azaspiro[3.4]octane] | 58 | 5.80 | 0 | < 4.60
Fc1ccc(OC[C@H]2CCCO2)c(C2CCN([C@@H]3COC4(C3)CN(c3nnco3)C4)CC2)c1 [Example 2M, (S)-7-(4-(5-fluoro-2-(((R)-tetrahydrofuran-2-yl)methoxy)phenyl)piperidin-1-yl)-2-(1,3,4-oxadiazol-2-yl)-5-oxa-2-azaspiro[3.4]octane] | 7 | 5.45 | 0 | < 4.60
Fc1ccc(OCC2(F)COC2)c(C2CCN([C@@H]3COC4(C3)CN(c3nnco3)C4)CC2)c1 [Example 2J, (S)-7-(4-(5-fluoro-2-((3-fluorooxetan-3-yl)methoxy)phenyl)piperidin-1-yl)-2-(1,3,4-oxadiazol-2-yl)-5-oxa-2-azaspiro[3.4]octane] | 103 | 6.39 | 0 | < 4.60
Fc1ccc(OCC2COC2)c(C2CCN([C@@H]3COC4(C3)CN(c3nncs3)C4)CC2)c1 [Example 2A, (S)-7-(4-(5-fluoro-2-(oxetan-3-ylmethoxy)phenyl)piperidin-1-yl)-2-(1,3,4-thiadiazol-2-yl)-5-oxa-2-azaspiro[3.4]octane] | 103 | 6.26 | 0 | < 4.60
Fc1ccc(OC[C@H]2CCOC2)c(C2CCN([C@@H]3COC4(C3)CN(c3nncs3)C4)CC2)c1 [Example 5X, (S)-7-(4-(5-fluoro-2-(((S)-tetrahydrofuran-3-yl)methoxy)phenyl)piperidin-1-yl)-2-(1,3,4-thiadiazol-2-yl)-5-oxa-2-azaspiro[3.4]octane] | 75 | 5.63 | 0 | < 4.60
c1ccc(C2CCN([C@@H]3COC4(C3)CN(c3nnco3)C4)CC2)c(OC2COC2)c1 [Example 1P, (S)-2-(1,3,4-oxadiazol-2-yl)-7-(4-(2-(oxetan-3-yloxy)phenyl)piperidin-1-yl)-5-oxa-2-azaspiro[3.4]octane] | 76 | 6.36 | 0 | < 4.60
